For this test, the target named is T1, glucokinase (GK), residues 12-465 of the human enzyme (Homo sapiens, UniProt P35557).
T1 construct: I.D. No. 1 corresponds to residues 12-465 of glucokinase; made in house; host or cells: E. coli DH10b-Tlr
T1 sequence (P35557 with tags, fused parts or gaps isoform P35557-2): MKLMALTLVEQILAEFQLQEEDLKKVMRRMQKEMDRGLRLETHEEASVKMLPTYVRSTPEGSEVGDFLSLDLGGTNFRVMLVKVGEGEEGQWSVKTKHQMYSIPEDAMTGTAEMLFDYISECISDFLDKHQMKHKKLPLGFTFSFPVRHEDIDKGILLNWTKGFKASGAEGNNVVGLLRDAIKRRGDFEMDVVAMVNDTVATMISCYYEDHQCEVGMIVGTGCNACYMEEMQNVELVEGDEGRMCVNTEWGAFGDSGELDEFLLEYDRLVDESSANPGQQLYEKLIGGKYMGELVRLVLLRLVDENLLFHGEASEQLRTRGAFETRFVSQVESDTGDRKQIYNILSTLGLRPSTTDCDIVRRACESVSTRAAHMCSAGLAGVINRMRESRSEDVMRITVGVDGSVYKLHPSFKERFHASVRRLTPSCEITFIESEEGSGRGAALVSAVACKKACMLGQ
Nature of the test: Enzymatic glucokinase activity assay (KinaseGlo luminescence, ATP consumption). The class given is biochemical. As to conditions: 5 μM ATP, 5 mM Glucose; for EC50: GK activation, Kact = concentration giving 50% of the maximal increase in GK activity, read-out: pKact; for Emax: calculated maximal gain in GK enzyme activity at a saturating concentration of the compound, read-out: % ACTmax. An excerpt: The activity of compounds as glucokinase activators may be assayed in vitro, in vivo or in a cell line. Provided below is an enzymatic glucokinase activity assay.
Purified glucokinase may be obtained as follows. DNA encoding residues 12-465 of the full-length sequence of the human enzyme may be amplified by PCR and cloned into the HindIII and EcoRI sites of pFLAG-CTC (Sigma). SEQ. I.D. No. 1 corresponds to residues 12-465 of glucokinase.
The expression of recombinant glucokinase protein may be carried out by transformation and growth of DH10b-Tlr E. coli cells incorporating the (pFLAG-CTC) plasmid in LB media. Protein expression can be induced in this system by the addition of IPTG to the culture medium.
Recombinant protein may be isolated from cellular extracts by passage over Sepharose Q Fast Flow resin (Pharmacia). This partially purified GK extract may then be further purified by a second passage over Poros HQ 10 (Applied Biosystems). The purity of GK may be determined on denaturing SDS-PAGE gel. Purified GK may then be concentrated to a final concentration of 20.0 mg/ml. After flash freezing in liquid nitrogen, the proteins can be stored at −78° C. in a buffer containing 25 mM TRIS-HCl pH 7.6, 50 mM NaCl, and 0.5 mM TCEP.
The activation properties of compounds for GK may be determined using a black 384-well-plate format under the following reaction conditions: 25 mM Hepes pH 7.2, 25 mM NaCl, 10 mM MgCl2, 0.01% Brij35, 1 mM DTT, 5 μM ATP, 5 mM Glucose 2% DMSO. The amount of ATP consumed may be determined quantitatively by addition of equal volume of luciferase reagent (luciferase+beetle luciferin—KinaseGlo Luminescent Kinase Assay kit from Promega). The luminescence intensity may be measured by using the Analyst HT from LJL Biosystems.
The assay reaction may be initiated as follows: 4 μl of substrate mixture (12.5 μM ATP and 12.5 mM Glucose) was added to each well of the plate, followed by the addition of 2 μl of activator (2 fold serial dilutions for 11 data points for each activator) containing 10% DMSO. 4 μL of 1.25 nM GK solution may be added to initiate the reaction. The reaction mixture may then be incubated at room temperature for 60 min, and quenched and developed by addition of 10 μL of luciferase reagent. Luminescence intensities of the resulting reaction mixtures may be measured after a 10 min incubation at room temperature. The luminescence intensity may be measured by using the Analyst HT from LJL Biosystems.
pKact and % ACTmax values may be calculated by non-linear curve fitting of the compound concentrations and luminescence intensities to a standard inhibition/activation equation.

The source of these data is US8173645B2 (Takeda San Diego, Inc., priority 2007, dated 2012).

The structures appear in SMILES notation.

For `O=C(Nc1nccs1)[C@H](CC1CCCCC1)N1CCN(C(=S)NCc2cccs2)CC1=O` [Example 123, (S)-3-cyclohexyl-2-(2-oxo-4-(thiophen-2-ylmethylcarbamothioyl)piperazin-1-yl)-N-(thiazol-2-yl)propanamide], the EC50 lay within 1580 to 2510 nM and the Emax is 108 to 119%.
The matching figures for `Cc1ccccc1S(=O)(=O)N1CCN([C@@H](CC2CCCCC2)C(=O)Nc2nccs2)C(=O)C1` [Example 218, (S)-3-cyclohexyl-2-(2-oxo-4-(o-tolylsulfonyl)piperazin-1-yl)-N-(thiazol-2-yl)propanamide]: 794 to 1260 nM and 108 to 119%.
For `CCOC(=O)c1nc(-c2ccc(S(=O)(=O)N3CCN([C@@H](CC4CCCCC4)C(=O)Nc4nccs4)C(=O)C3)s2)no1` [Example 167, (S)-ethyl 3-(5-(4-(3-cyclohexyl-1-oxo-1-(thiazol-2-ylamino)propan-2-yl)-3-oxopiperazin-1-ylsulfonyl)thiophen-2-yl)-1,2,4-oxadiazole-5-carboxylate], in that order: 1580 to 2510 nM and no more than 74%.
For `COc1cccc(C[C@@H](C(=O)Nc2nccs2)N2CCN(S(=O)(=O)C3CC3)CC2=O)c1` [Example 4, (S)-2-(4-(cyclopropylsulfonyl)-2-oxopiperazin-1-yl)-3-(3-methoxyphenyl)-N-(thiazol-2-yl)propanamide], in that order: 1580 to 2510 nM and 74.1 to 97%.
Regarding `O=C(Nc1nccs1)[C@H](CC1CCCCC1)N1CCN(C(=O)Nc2ccc(Cl)cc2)CC1=O` [Example 137, (S)-N-(4-chlorophenyl)-4-(3-cyclohexyl-1-oxo-1-(thiazol-2-ylamino)propan-2-yl)-3-oxopiperazine-1-carboxamide], the EC50 was no less than 3160 nM and the Emax was no more than 74%.
The matching figures for `COc1cc(C)c(S(=O)(=O)N2CCN([C@@H](CC3CCCCC3)C(=O)Nc3nccs3)C(=O)C2)c(C)c1C` [Example 182, (S)-3-cyclohexyl-2-(4-(4-methoxy-2,3,6-trimethylphenylsulfonyl)-2-oxopiperazin-1-yl)-N-(thiazol-2-yl)propanamide]: 794 to 1260 nM and no more than 74%.
For `O=C(Nc1nccs1)[C@H](CC1CCCCC1)N1CCN(S(=O)(=O)c2ccccc2C(F)(F)F)CC1=O` [Example 71, (S)-3-cyclohexyl-2-(2-oxo-4-(2-(trifluoromethyl)phenylsulfonyl)piperazin-1-yl)-N-(thiazol-2-yl)propanamide], in that order: no more than 631 nM and 108 to 119%.
With `O=C(Nc1nccs1)[C@H](CC1CCCCC1)N1CCN(S(=O)(=O)c2ccc(Br)c(Br)c2)CC1=O` [Example 231, (S)-3-cyclohexyl-2-(4-(3,4-dibromophenylsulfonyl)-2-oxopiperazin-1-yl)-N-(thiazol-2-yl)propanamide], the EC50 is 794 to 1260 nM and the Emax was no more than 74%.
The matching figures for `O=C(Nc1nccs1)[C@H](CC1CCCCC1)N1CCN(C(=S)NCc2cccc(F)c2)CC1=O` [Example 119, (S)-3-cyclohexyl-2-(4-(3-fluorobenzylcarbamothioyl)-2-oxopiperazin-1-yl)-N-(thiazol-2-yl)propanamide]: 794 to 1260 nM and 97.1 to 107%.
For `Cc1cc(S(=O)(=O)N2CCN([C@@H](CC3CCCCC3)C(=O)Nc3nccs3)C(=O)C2)c(C)s1` [Example 180, (S)-3-cyclohexyl-2-(4-(2,5-dimethylthiophen-3-ylsulfonyl)-2-oxopiperazin-1-yl)-N-(thiazol-2-yl)propanamide], in that order: no more than 631 nM and 108 to 119%.
The matching figures for `O=C(Nc1nccs1)[C@H](CC1CCCCC1)N1CCN(C(=S)Nc2ccc(Cl)c(Cl)c2)CC1=O` [Example 87, (S)-3-cyclohexyl-2-(4-(3,4-dichlorophenylcarbamothioyl)-2-oxopiperazin-1-yl)-N-(thiazol-2-yl)propanamide]: no less than 3160 nM and 74.1 to 97%.
